Data from US11369114B2, “Antimicrobial coatings comprising organosilane homopolymers” (ALLIED BIOSCIENCE, INC., priority 2014, dated 2022).

Tested on: E. coli
Assay: Efficacy of treated coupons after inoculation with E. coli (Examples II-V)
Assay type: cell-based
Settings: Examples IV/V: organosilane with triethanolamine coating first, Titanium Oxide Moieties (TiO2) disposed over it
Procedure: This Example II disposes the components of the composition onto a target surface in a reverse order. More specifically, Applicants first dispose the Titanium-Oxide Moieties onto the target surface, the aqueous portion of the first spray deposition is evaporated, and then dispose Octadecylaminodimethyltrihydroxysilylpropyl Ammonium Chloride 6 over the earlier-disposed Titanium-Oxide Moieties.
The test coupons of this Example II were prepared and using the Procedure recited immediately hereinbelow. In various embodiments, the treated coupons were stored for at least four (4) weeks prior to inoculation with various organisms.
This Example III simultaneously disposes a mixture of the organosilane and the Titanium-Oxide Moieties onto the surface of a plurality of test coupons. More specifically in this Example III, the simultaneously dispose the Titanium-Oxide Moieties and Octadecylaminodimethyltrihydroxysilylpropyl Ammonium Chloride 6 onto a surface of each test coupon.
The test coupons of this Example III were prepared and using the Procedure recited immediately hereinbelow. In various embodiments, the treated coupons were stored for at least four (4) weeks prior to inoculation with various organisms.
The test coupons of this Example IV were prepared and using the Procedure recited immediately hereinbelow. […]

For `NCCC[Si](O)(O)O` [3-aminopropyltrihydroxysilane], which “efficacy of treated coupons (self-decontaminating surface)” value is on record?
Its value is “generates a self-decontaminating surface”.

How did the “efficacy of treated coupons (self-decontaminating surface)” value turn out when `O[Si](O)(O)CCCCl` [3-chloropropyltrihydroxysilane] was run?
Its value is “generates a self-decontaminating surface”.
